Measurements taken from publication PMC9981206 (Cancer Research Communications, 2022).

Experiments:
[1] = system: UO-31 cells; assay: MTS colorimetric cell growth assay, UO-31; assay type: cell-based, human
Source text: (§1) The cell cultures were kept below 20 passages (∼10 weeks) and routinely monitored (upon thawing and monthly) for Mycoplasma infections with MycoAlert Mycoplasma Detection Kit (Lonza). All cell lines were authenticated by short tandem repeat profiling to confirm their identity (Eurofins). TNKS1/2 and PARP1 biochemical assays ([27, 32]), luciferase-based WNT/β-catenin signaling pathway reporter assay ([22, 27, 32]), anti-proliferative assays, and NCI-60 tumor cell line panel screen ([7]), immunoblot analyses ([7, 32, 39]), RNA isolation, and real-time qRT-PCR ([7, 27, 39, 40]) were performed as previously described.
(§2) Prostate (Pro) and central nervous system (CNS). […] Mean ± SD values for data from one representative experiment of more than three repeated assays, each with six replicates, are shown. C, Evaluation of WNT/β-catenin signaling. Left, immunoblots of cytoplasmic AXIN1 and nuclear active form of β-catenin [non-phospho (Ser33/37/Thr41)] and total β-catenin. Lamin B1 loading controls are duplicated for OVCAR-4 immunoblots. Right, real-time RT-qPCR analysis of the WNT/β-catenin signaling target gene AXIN2. […] Immunoblots show representative data from two or more independent experiments. Actin (cytoplasm) and lamin B1 (nucleus) were used as loading controls. […]

[2] = Dose escalation experiment (acute toxicity, MTD); settings: 500, 1,000, 1,500, or 2,000 mg/kg oral twice daily, single male CD-1 mice
Procedure: The dose escalation experiment was performed in single male CD-1 mice (CRL: 022, RRID: IMSR_CRL: 022, Charles River) at BSL BIOSERVICE/Eurofins using their standard protocol. […] Body weight was recorded daily.

[3] = system: ABC-1 cells; assay: MTS colorimetric cell growth assay, ABC-1; assay type: cell-based; settings: Homo sapiens, ABC-1, 120 h
Source text: as §1, §2

[4] = system: MYC signaling; assay: Immunoblot and real-time qRT-PCR, MYC signaling in cancer cell lines; assay type: cell-based, human; settings: 10 nmol/L, 24 hours, all TNKSi-sensitive cell lines
Source text: as §1, §2

[5] = system: RKO colon carcinoma cells; settings: 5 days of cultivation; cited from earlier work
[6] = system: WNT/β-catenin signaling; assay: Immunoblot and real-time qRT-PCR, WNT/β-catenin signaling in cancer cell lines; assay type: cell-based, human; settings: 10 nmol/L, 24 hours
Source text: as §1
Prostate (Pro) and central nervous system (CNS). […] Mean ± SD values for data from one representative experiment of more than three repeated assays, each with six replicates, are shown. C, Evaluation of WNT/β-catenin signaling. Left, immunoblots of cytoplasmic AXIN1 and nuclear active form of β-catenin [non-phospho (Ser33/37/Thr41)] and total β-catenin. Lamin B1 loading controls are duplicated for OVCAR-4 immunoblots. Right, real-time RT-qPCR analysis of the WNT/β-catenin signaling target gene AXIN2. […] Immunoblots show representative data from two or more independent experiments. Actin (cytoplasm) and lamin B1 (nucleus) were used as loading controls. Boxplots show median, first, and third quartiles and maximum and minimum whiskers for combined data from three independent experiments with three replicates each. Stippled lines (black) depict control mean values = 1. Two-tailed t tests: ***, P < 0.001; **, P < 0.01; and *, P < 0.05. Mann–Whitney rank sum tests: ‡, P < 0.01. ns., not significant. D, Evaluation of YAP signaling. Left, immunoblots of cytoplasmic AMOTL2 (top) and nuclear YAP and TAZ (bottom). Right, real-time RT-qPCR analysis of the YAP signaling target genes AMOTL2, CCN1, and […]. For D and E, lamin B1 loading controls are duplicated for RKO immunoblots (YAP/TAZ and CCND1). E, Evaluation of MYC signaling. Left, immunoblots of nuclear MYC and CCND1. Lamin B1 loading controls are duplicated for ABC-1 immunoblots. […]

[7] = molecular target: PARP1 (Homo sapiens, UniProt P09874); settings: biochemical assay; cited from earlier work
PARP1, sequence (P09874 whole entry): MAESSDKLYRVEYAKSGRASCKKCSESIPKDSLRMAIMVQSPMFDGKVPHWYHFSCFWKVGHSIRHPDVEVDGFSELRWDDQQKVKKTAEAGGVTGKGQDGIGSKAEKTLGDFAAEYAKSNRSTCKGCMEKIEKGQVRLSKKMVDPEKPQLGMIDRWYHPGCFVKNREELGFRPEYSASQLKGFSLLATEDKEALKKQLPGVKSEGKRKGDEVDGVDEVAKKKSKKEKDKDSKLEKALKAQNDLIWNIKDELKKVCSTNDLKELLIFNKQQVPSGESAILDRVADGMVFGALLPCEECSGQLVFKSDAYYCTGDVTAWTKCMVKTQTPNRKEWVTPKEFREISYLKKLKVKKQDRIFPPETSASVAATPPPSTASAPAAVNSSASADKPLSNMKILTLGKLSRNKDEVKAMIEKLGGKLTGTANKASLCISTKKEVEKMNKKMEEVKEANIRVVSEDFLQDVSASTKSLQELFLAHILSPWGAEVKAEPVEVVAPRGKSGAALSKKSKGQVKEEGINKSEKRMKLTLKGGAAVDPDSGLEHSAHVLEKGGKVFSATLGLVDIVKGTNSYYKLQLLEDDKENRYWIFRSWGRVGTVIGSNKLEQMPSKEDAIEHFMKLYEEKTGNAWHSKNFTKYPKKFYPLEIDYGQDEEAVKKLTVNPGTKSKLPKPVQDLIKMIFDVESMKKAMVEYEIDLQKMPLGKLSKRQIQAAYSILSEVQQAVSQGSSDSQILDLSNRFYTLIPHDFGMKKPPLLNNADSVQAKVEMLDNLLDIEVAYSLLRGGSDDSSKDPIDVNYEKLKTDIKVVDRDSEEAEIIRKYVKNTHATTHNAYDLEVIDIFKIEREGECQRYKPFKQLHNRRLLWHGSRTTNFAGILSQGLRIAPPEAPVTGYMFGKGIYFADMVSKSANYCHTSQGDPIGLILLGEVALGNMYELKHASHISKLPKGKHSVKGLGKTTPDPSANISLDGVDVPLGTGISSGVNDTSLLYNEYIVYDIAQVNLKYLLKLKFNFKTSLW

With `CCOc1ccc(-c2nnc([C@H]3C[C@H](NC(=O)c4cccc5nccnc45)C3)n2-c2ccccc2F)nc1` [OM-153] the GI50 ([1]; Homo sapiens, UO-31, 120 h) was greater than 10 nM, the GI25 ([1]; UO-31, 5 days) was 3.5 nM and the “clinical signs of systemic toxicity” value [2] was “No clinical signs of systemic toxicity”. For the same compound, the GI50 [3] was 2 nM, the “MYC and CCND1 protein and transcription of MYC and CCND1” value [4] was “decreased” and the GI50 [5] was greater than 10000 nM. For the same compound, the “RKO GI25” value [5] was > 10,000 nmol/L, the “transcription of AXIN2” value ([6]; COLO 320DM, OVCAR-4 and ABC-1 cells) was “significantly reduced” and the AXIN1 protein ([6]; all cell lines (COLO 320DM, UO-31, OVCAR-4, ABC-1, RKO)) was “stabilized”. The “transcriptionally active form of β-catenin in the nuclei” value ([6]; only in COLO 320DM and ABC-1 cells) was “reduction” and the IC50 [7] was greater than 100000 nM.
